Results: paper PMC8667902 (Journal of Enzyme Inhibition and Medicinal Chemistry, 2021)
“And” between values parts separate entries of the source, which are not always exact repeats. Identical values can stand only once.

Columns and labels:
ratAChE = biological target: T1, ratAChE (Rattus norvegicus, UniProt P37136); test: Ellman's method, AChE from rat cortex homogenate; type: biochemical; conditions: ratBuChE over rat AChE
T1 sequence (P37136 32-614): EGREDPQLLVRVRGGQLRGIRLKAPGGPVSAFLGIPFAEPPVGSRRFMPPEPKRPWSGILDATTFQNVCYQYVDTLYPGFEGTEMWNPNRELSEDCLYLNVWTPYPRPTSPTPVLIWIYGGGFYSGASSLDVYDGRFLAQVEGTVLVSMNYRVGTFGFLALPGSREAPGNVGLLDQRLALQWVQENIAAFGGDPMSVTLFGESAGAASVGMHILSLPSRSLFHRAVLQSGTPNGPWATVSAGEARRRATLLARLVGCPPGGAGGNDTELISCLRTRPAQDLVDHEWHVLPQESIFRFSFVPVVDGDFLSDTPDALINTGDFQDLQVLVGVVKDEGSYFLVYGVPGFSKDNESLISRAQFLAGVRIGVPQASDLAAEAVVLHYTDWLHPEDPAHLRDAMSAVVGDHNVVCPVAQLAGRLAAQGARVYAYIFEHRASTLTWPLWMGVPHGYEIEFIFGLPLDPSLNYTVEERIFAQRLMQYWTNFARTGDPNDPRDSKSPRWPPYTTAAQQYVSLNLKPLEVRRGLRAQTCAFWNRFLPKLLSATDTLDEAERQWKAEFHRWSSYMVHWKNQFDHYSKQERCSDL

eeAChE = eeAChE (Electrophorus electricus, UniProt O42275); test: Ellman's method, electric eel AChE; type: biochemical
eeAChE, sequence (O42275 24-633): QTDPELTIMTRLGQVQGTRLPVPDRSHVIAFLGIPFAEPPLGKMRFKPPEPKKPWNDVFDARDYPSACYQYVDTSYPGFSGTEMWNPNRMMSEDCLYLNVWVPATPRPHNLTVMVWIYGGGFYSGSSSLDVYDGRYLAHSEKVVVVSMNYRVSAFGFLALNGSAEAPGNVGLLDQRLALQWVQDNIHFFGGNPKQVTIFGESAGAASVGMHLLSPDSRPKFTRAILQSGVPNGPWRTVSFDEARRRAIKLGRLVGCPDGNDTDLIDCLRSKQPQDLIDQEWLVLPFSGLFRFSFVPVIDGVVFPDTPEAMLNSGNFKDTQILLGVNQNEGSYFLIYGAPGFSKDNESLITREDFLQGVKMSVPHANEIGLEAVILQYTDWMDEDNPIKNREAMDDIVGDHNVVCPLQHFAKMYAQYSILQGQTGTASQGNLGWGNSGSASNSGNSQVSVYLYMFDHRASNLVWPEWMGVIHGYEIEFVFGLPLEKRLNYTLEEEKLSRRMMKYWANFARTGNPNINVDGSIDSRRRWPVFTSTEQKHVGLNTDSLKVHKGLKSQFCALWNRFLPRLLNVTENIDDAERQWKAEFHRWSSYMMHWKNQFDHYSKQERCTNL

ratBuChE = ratBuChE (Rattus norvegicus, UniProt Q9JKC1); test: Ellman's method, BuChE from rat serum; type: biochemical
ratBuChE, sequence (Q9JKC1 24-597): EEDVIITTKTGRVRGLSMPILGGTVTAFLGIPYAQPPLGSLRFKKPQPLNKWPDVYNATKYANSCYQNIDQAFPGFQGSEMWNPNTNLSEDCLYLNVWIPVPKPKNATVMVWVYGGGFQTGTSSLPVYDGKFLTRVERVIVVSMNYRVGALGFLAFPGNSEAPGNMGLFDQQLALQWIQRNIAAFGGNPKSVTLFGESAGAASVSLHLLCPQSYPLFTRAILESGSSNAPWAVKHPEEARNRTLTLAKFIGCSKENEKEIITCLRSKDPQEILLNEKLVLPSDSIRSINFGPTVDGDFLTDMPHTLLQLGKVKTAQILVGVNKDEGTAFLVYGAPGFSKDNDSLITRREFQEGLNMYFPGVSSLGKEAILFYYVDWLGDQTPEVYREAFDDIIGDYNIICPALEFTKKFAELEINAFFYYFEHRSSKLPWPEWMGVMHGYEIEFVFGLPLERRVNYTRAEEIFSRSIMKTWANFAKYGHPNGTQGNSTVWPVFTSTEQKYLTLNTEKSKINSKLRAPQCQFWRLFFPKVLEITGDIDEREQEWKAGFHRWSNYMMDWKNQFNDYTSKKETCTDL

[1] = Oxygen Radicals Absorbance Capacity by Fluorescence; conditions: for ORAC: Trolox as reference
AChE = test: Kinetic characterisation of AChE inhibition; type: biochemical; conditions: Lineweaver-Burk plots, substrate acetylthiocholine
AChE PAS (eeAChE) = AChE PAS (eeAChE) (Electrophorus electricus, UniProt O42275); test: Propidium iodide displacement assay; type: binding, electric eel; conditions: read-out: Propidium iodide displacement from AChE PAS (% inhibition)
AChE PAS (eeAChE), sequence (O42275 24-633): as the sequence (O42275 24-633) above

[2] = biological target: huAChE-induced Aβ1–40 aggregation (Homo sapiens, UniProt P22303); test: Inhibition of huAChE-induced Aβ1–40 aggregation; type: biochemical; conditions: compound 100 μM, Aβ1–40 230 μM, Aβ1–40/HuAChE 100/1; ThT; mean ± SEM
huAChE-induced Aβ1–40 aggregation, sequence (P22303 32-614): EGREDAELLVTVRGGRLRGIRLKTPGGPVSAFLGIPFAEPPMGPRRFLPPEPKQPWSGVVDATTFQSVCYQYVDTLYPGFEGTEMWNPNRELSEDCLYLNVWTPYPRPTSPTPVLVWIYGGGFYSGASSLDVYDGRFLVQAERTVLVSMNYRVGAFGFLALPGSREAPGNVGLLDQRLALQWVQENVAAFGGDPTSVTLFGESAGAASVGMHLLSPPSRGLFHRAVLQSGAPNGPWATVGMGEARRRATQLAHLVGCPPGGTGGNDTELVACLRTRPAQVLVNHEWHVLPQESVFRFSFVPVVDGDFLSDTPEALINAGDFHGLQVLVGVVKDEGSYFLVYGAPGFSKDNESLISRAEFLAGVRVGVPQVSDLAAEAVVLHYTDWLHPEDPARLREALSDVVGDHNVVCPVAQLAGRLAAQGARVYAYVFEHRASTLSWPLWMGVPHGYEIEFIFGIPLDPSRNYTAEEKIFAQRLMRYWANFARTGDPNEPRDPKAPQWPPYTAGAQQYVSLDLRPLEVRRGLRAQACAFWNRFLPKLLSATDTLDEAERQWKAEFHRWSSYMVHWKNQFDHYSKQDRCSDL

Aβ1–42 [3] = biological target: T2, Aβ1–42 (Homo sapiens, UniProt P05067); test: Inhibition of self-induced Aβ1–42 aggregation; type: biochemical; conditions: read-out: Inhibition of Aβ1–42 aggregation (%) Self-induced, 25 μM; ThT assay
T2 sequence (P05067 672-713): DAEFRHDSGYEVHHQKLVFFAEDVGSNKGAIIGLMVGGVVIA

Aβ1–42 [4] = biological target: T2, Aβ1–42; test: Inhibition of Cu2+-induced Aβ1–42 aggregation; type: biochemical; conditions: read-out: Inhibition of Aβ1–42 aggregation (%) Cu^2+-induced
Aβ1–42 fibrils [5] = biological target: T3, Aβ1–42 fibrils (Homo sapiens, UniProt P05067); test: Disaggregation of self-induced Aβ1–42 aggregation; type: biochemical; conditions: 25 μM; ThT assay
T3 sequence (P05067 672-713): as above

Aβ1–42 fibrils [6] = biological target: T3, Aβ1–42 fibrils; test: Disaggregation of Cu2+-induced Aβ1–42 aggregation; type: biochemical; conditions: 25 μM; ThT assay
huMAO-B = biological target: T4, huMAO-B (Homo sapiens, UniProt P27338); test: biochemical
T4 sequence (P27338 1-520): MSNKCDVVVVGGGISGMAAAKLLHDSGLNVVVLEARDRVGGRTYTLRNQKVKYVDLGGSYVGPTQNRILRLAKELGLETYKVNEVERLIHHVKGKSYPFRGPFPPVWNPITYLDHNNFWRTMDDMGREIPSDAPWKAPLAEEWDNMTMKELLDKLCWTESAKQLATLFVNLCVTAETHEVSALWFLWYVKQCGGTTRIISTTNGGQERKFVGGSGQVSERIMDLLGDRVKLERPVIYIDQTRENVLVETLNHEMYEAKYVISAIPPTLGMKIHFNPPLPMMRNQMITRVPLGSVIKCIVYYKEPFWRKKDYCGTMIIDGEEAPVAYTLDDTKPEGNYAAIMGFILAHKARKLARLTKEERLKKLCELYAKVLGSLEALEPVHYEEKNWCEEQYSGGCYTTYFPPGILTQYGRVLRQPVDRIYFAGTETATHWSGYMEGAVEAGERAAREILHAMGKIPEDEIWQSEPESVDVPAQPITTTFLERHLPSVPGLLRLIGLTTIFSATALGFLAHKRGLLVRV

huMAO-A = biological target: T5, huMAO-A (Homo sapiens, UniProt P21397); test: huMAO-A inhibition, fluorescence method; type: biochemical
T5 sequence (P21397 1-527): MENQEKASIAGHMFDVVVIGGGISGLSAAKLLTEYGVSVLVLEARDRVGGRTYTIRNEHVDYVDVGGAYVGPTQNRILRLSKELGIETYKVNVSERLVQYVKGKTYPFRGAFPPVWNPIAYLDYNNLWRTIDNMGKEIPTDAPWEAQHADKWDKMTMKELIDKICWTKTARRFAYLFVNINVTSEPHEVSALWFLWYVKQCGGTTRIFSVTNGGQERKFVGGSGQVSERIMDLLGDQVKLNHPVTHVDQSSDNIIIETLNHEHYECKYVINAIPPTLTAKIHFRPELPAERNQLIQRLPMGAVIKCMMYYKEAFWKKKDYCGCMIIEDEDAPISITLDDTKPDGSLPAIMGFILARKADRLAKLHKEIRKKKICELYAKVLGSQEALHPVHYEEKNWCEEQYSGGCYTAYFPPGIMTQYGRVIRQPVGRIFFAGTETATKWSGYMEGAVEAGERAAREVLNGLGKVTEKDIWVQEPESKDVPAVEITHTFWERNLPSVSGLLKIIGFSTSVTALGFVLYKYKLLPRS

[7] = Metal chelation by UV-vis spectrometry and molar ratio method; type: physicochemical
PC12 cells [8] = test: Cytotoxicity in PC12 cells, MTT assay; type: cell-based; conditions: up to 50 µM
PC12 cells [9] = test: Neuroprotection against H2O2-induced PC12 cell injury, LDH assay; type: cell-based; conditions: H2O2 alone 712.7, vehicle 602.3
[10] = 37.5 μM, peak of compound alone: 9d 362 nm, 17f 350 nm

## CCN(CCCCCCOc1ccc(/C=C/C(=O)c2c(O)cc(OC)c(O)c2OC)cc1)Cc1ccccc1OC [Compound 17f, (E)-1-(3,6-dihydroxy-2,4-dimethoxyphenyl)-3-(4-((6-(ethyl(2-methoxybenzyl)amino)hexyl)oxy)phenyl)prop-2-en-1-one]
ratAChE
  SI = Selectivity index = IC50 (BuChE)/IC50 (AChE): >1219.5
eeAChE
  IC50: 1.88 ± 0.01 µM
ratBuChE
  IC50: > 500 µM
[1]
  ORAC: 3.3 ± 0.01 μM of Trolox equivalent/μM of compounds
[1]; Trolox equivalents
  ORAC-FL value: 3.3 eq
AChE
  type of AChE inhibition: mixed-type AChE inhibition
AChE PAS (eeAChE)
  inhibition at 10 µM: 23.9 ± 1.6%
  inhibition at 50 µM: 34.2 ± 2.3%
[2]
  % Inhibition of huAChE-induced Aβ aggregation: 53.9 ± 3.7%
Aβ1–42 [3]
  inhibition at 25 µM: 78 ± 0.02%
Aβ1–42 [4]
  inhibition at 25 µM: 93.5 ± 0.01%
Aβ1–42 fibrils [5]
  Disaggregation of Aβ1–42 aggregation (%) Self-induced: 72.3% and 72.3 ± 0.06%
Aβ1–42 fibrils [6]
  Disaggregation of Aβ1–42 aggregation (%) Cu^2+-induced: 84.5% and 84.5 ± 0.35%
huMAO-B
  IC50: 8.8 ± 0.06 µM
  SI = selectivity index = IC50 (hMAO-A)/IC50 (hMAO-B): 4.3
huMAO-A
  IC50: 37.5 ± 0.35 µM
[7]; 37.5 μM
  shift of characteristic UV peak after adding FeSO4 and ZnCl2: no significant shift
[7]; 37.5 μM compound, ascending CuCl2
  mole fraction at break (molar ratio method, compound-Cu^2+): 1.03
[7]; [10]
  characteristic UV peak after adding AlCl3 (red shift): 370 nm
  characteristic UV peak after adding CuCl2 (red shift): 422 nm
PC12 cells [8]
  cytotoxicity in PC12 cells: did not show obvious cytotoxicity
PC12 cells [9]; PC12, 100 µM H2O2, compound 10 µM
  LDH vitality: 621.3
PC12 cells [9]; PC12, 100 µM H2O2, compound 50 µM
  LDH vitality: 549.7
PAMPA-BBB; PAMPA
  Papp: 4.23 ± 0.37 ×10⁻⁶ cm/s
PAMPA-BBB; PAMPA-BBB
  Prediction (BBB penetration): CNS+ (Pe (×10^−6 cm/s) > 3.44 × 10^−6 cm/s possess high BBB permeation)

## Cc1c(C)c2c(c(C)c1O)CC[C@@](C)(CCC[C@H](C)CCC[C@H](C)CCCC(C)C)O2 [Vitamin E, α-tocopherol, reference compound]
[1]
  ORAC: 2.6 ± 0.06 μM of Trolox equivalent/μM of compounds
PC12 cells [9]; PC12, 100 µM H2O2, compound 100 µM
  LDH vitality: 654.7
